Experimental data from US11478466B2, “Small molecule promoting osteoblast differentiation” (Cornell University, priority 2019, dated 2022).
Where two headings read alike, the source gives them in different places.

Experiments:
AP-1 response element = AP-1 response element luciferase reporter assay; type: cell-based; conditions: 293T HEK cells, 7 hours, various concentrations
Method: For AP-1 reporter assays, 293T HEK cells were seeded at 0.25×10^6 cells/well of a gelatin-coated 24-well plate one day before transfection. Plasmid transfections were performed using Lipofectamine LTX (Invitrogen) according to manufacturer's protocol. Briefly, 293T HEK cells were co-transfected with pGL4.44 AP1 [luc2P/AP1 RE/Hygro] reporter plasmid (Promega) and SV40Renilla plasmid as a transfection control. 24 hours after transfection, cells were incubated in serum free DMEM media for 24 hours. The following day, cells were treated with 10 ng/ml PMA (Phorbol 12-myristate 13-acetate; Tocris) or indicated concentration of DIPQUO in serum free DMEM for 7 hours prior to lysis with 1× Passive Lysis buffer (Promega). Luciferase expression was measured using Dual-Glo Luciferase Assay (Promega).

C2C12 cells = assay: qRT-PCR of osteoblast differentiation transcripts in C2C12 cells; type: cell-based, mouse; conditions: C2C12, 10 μM
Method: For quantitative RT-PCR analysis of gene expression in C2C12 cultures, cells were treated for 2 days with 10 μM DIPQUO and harvested into Trizol reagent (Invitrogen). One microgram of RNA was reverse transcribed using the VILO-RT kit (Invitrogen) to generate cDNA, which was diluted 1:25 in RNase-free H2O for qPCR with Sybr green using the Roche 480 II LightCycler and the 2^−ΔΔCT method (Livak and Schmittgen, 2001). For analysis of osteoclast gene expression, RAW 264.7 cells were treated with DMSO, 50 ng/ml RANKL, or 10 μM DIPQUO for 4 days, then harvested into Trizol reagent and processed as above. Mouse qPCR primers are as follows. Runx2: F([…]) (SEQ ID NO:1); R([…]) (SEQ ID NO:2); Dlx5: F([…]) (SEQ ID NO:3); R([…]) (SEQ ID NO:4); Osterix: F([…]) (SEQ ID NO:5); R([…]) (SEQ ID NO:6); ALP: F([…]) (SEQ ID NO:7); R([…]) (SEQ ID NO:8); Osteocalcin: F([…]) (SEQ ID NO:9); R([…]) (SEQ ID NO:10); Osteoactivin: F([…]) (SEQ ID NO:11); R([…]) (SEQ ID NO:12); CTSK: F([…]) (SEQ ID NO:13); R([…]) (SEQ ID NO:14); MMP9: F([…]) (SEQ ID NO:15); R([…]) (SEQ ID NO:16); Gapdh F([…]) (SEQ ID NO:17); R([…]) (SEQ ID NO:18). RNA-seq studies were carried out with the assistance of the Weill Cornell Genomics Core Facility, using the Illumina HiSeq4000 next-generation sequencer to generate reads from cDNA libraries generated from three biological replicates of day 2 DMSO- or DIPQUO-treated C2C12 cells. Gene sets were clustered by biological/disease function using Ingenuity Pathway Analysis (Qiagen Bioinformatics). Heatmaps with hierarchical clustering were generated in R using the CRAN package for a subset of genes involved in bone morphogenesis. Following normalization of the RNA Sequencing counts in DeSeq, z-scores were computed across samples within each gene for use in the heatmap. The accession number for the sequencing data reported in this paper is NCBI GEO: GSE125052.

p38 MAPK [1] = assay: Western blotting of p38 MAPK phosphorylation in C2C12 cells; type: cell-based, mouse
Method: (§1) Whole cell extracts were collected from C2C12 or BRITER cells in complete lysis buffer (20 mM Tris, 150 mM NaCl, 50 mM NaF, 1% NP40 substitute, HALT protease inhibitor cocktail (ThermoScientific). Proteins were resolved by electrophoresis on pre-cast 10% NuPage Bis-Tris gels (Invitrogen) and transferred to PVDF membranes (Bio-Rad). Membranes were blocked in 5% BSA-TBS-0.5% Tween-20 for 15 minutes, then incubated at 4° overnight with primary antibodies. Antibodies used were: rabbit anti-phospho-p38 MAPK (cat. no. 9211), anti-p38 MAPK XP (8690), anti-phospho-SMAD1/5 (9516), anti-SMAD1 XP (6944), anti-phospho-SMAD2/3 (8828), anti-SMAD2/3 XP (8685), anti-phospho-JNK (4668), anti-SAPK/JNK (9252), anti-phospho-Akt XP (4060), pan anti-Akt (4691), anti-phospho ERK p42/p44 (4377), anti-ERK p42/p44 (9102), anti-phospho-MKK3/6 (12280), anti-MKK3 (8535), anti-phospho-TAK1 (4531), anti-TAK1 (5206), anti-HA (3274), and anti-FLAG (14793); all from Cell Signaling); and mouse anti-p38α (cat. no. 33-1300), anti-p38β (33-8700; both ThermoFisher) and anti-β-actin (Sigma A1978). Proteins were visualized with HRP-conjugated secondary antibodies (Bio-Rad) with WestPico (ThermoFisher) or Immobilon (Millipore) chemiluminescence reagents. Images were obtained and analyzed for relative densitometric relationships on a LI-COR C-DiGit scanner using Image Studio software.

[2] = system: PI3K/Akt, ERK, TGF-β/SMAD2/3, BMP/SMAD1/5/9; assay: Western blotting of other signaling effectors in C2C12 cells; type: cell-based, mouse
Method: as §1

[3] = system: alkaline phosphatase (ALP)
Excerpt: (§3) To identify small-molecule activators of osteoblast differentiation, we measured ALP activity using a fluorescent emission assay as a reporter for enzymatic digestion of ALP substrate in lysates derived from C2C12 myoblasts. […] Therefore, before screening, the assay was calibrated using recombinant human BMP4 protein as a positive control. Compounds were robotically deposited onto 384-well plates and then overlaid by C2C12 cells for a 4-day culture period, followed by lysis and fluorescent substrate assays (FIG. 1A; Table 1). To ensure uniformity, C2C12 cells were maintained in normal culture medium containing 10% fetal bovine serum, and lysis and substrate addition achieved using a microplate multidrop device. The primary screen (Table 2) encompassed greater than 47,000 small molecules tested at a final concentration of 10 μM.
(§4) For the primary screen, library compounds were distributed onto 384-well microplates (Greiner Bio-One 781091) at a final concentration of 10 μM in culture medium using a Perkin Elmer Janus automated workstation and WinPrep Version 4.8.3.315. Positive (rhBMP4, 1 ng/ml, R&D Systems) and negative controls (DMSO, 0.2%) were manually added to each plate by multichannel pipet. C2C12 cells were seeded onto compounds and controls at a density of 2000/well using a Thermo Multidrop Combi reagent dispenser and cultured for 4 days at 37° C., 5% CO2. Culture medium was aspirated using a BioTek EL406 plate washer and cells were lysed in RIPA buffer (Millipore 20-188) at ambient temperature for 10 minutes. 10 μl fluorescent alkaline phosphatase substrate (AttoPhos, Promega S1000) was added to lysates and incubated an additional 10 minutes before measuring the fluorescence (Excitation 450 nm/Emission 580 nm) on a BioTek Synergy Neo2 stacking microplate reader. Plates were processed and relative fluorescence raw values measured in stacks of 10-20. The data were processed using Collaborative Drug Discovery web-based software (CDD Vault) to determine Z score calculated on DMSO control wells and percent activation normalized against positive and negative controls (NPA). Cherry-picked hit candidates were re-tested in concentration response experiments, from which 4 candidates were chosen and purchased for further testing from either ChemBridge or Enamine, based on availability.
(§5) We also purchased a library of 154 structural chemical analogs assembled by ChemBridge Corp. from available screening library compounds.

[4] = system: alkaline phosphatase (ALP); assay: cells; conditions: Mus musculus; for activation at 10 µM: C2C12, 96 h
Excerpt: as §3, §4, §5

p38 MAPK [5] = assay: Western blotting of p38 MAPK in BRITER cells; type: cell-based, mouse; conditions: BMP-2/BMP-4 repression by tamoxifen
Method: (§2) Cells were maintained in DMEM with 10% FBS. For analysis of DIPQUO effects independent of BMP signaling, BMP-2 and BMP-4 knockdown was achieved by treating cells overnight with 1 μM 4-hydroxytamoxifen (4-OHT), followed by continued maintenance in 1 μM 4-OHT. Cells were serum-starved for at least 6 hours before treatment with recombinant BMP protein or DIPQUO as noted in figure legends.
as §1, with “33-1300), anti-p38β (33-8700; both ThermoFisher) and anti-β-actin (Sigma A1978). Proteins were visualized with HRP-conjugated secondary antibodies (Bio-Rad) with WestPico (ThermoFisher) or Immobilon (Millipore) chemiluminescence reagents. Images were obtained and analyzed for relative densitometric relationships on a LI-COR C-DiGit scanner using Image Studio software.” left out

MKK3/6 = assay: Western blotting of MKK3/6 in BRITER cells; type: cell-based, mouse
Method: as §2
as §1, with “33-1300), anti-p38β (33-8700; both ThermoFisher) and anti-β-actin (Sigma A1978). Proteins were visualized with HRP-conjugated secondary antibodies (Bio-Rad) with WestPico (ThermoFisher) or Immobilon (Millipore) chemiluminescence reagents. Images were obtained and analyzed for relative densitometric relationships on a LI-COR C-DiGit scanner using Image Studio software.” left out

JNK p54 = assay: Western blotting of JNK in C2C12 cells; type: cell-based, mouse
Method: as §1

Cc1cc(C)c2[nH]c(=O)c(-c3[nH]cnc3-c3ccccc3)cc2c1 [RU-0226606, 6,8-dimethyl-3-(4-phenyl-1H-imidazol-5-yl)quinolin-2(1H)-one]
AP-1 response element luciferase reporter activation (AP-1 response element): Neither did DIPQUO stimulate activation | changes in expression of OCN and Osteoactivin (qRT-PCR) (C2C12 cells; 2 days, compared with BMP-treated positive controls): much higher with DIPQUO treatment than in BMP-treated positive controls | expression of Runx2 and Osterix (qRT-PCR) (C2C12 cells; 2 days, vs DMSO): significant upregulation | expression of ALP and OCN (qRT-PCR) (C2C12 cells; day 2, vs DMSO): substantially increased by day 2 | p38 MAPK signaling (phosphorylation) (p38 MAPK [1]; C2C12, western blotting): selectively activated p38 MAPK signaling | concentration at which effects on p38 MAPK and JNK pathway activation overlap (p38 MAPK [1]; dose-response, western blotting, 6-8 hours of treatment): 5 to 10 µM | other pathways (PI3K/Akt, ERK, TGF-β/SMAD2/3, BMP/SMAD1/5/9) [2]: no change observed | RFU Score (10 μM) ([3]; 154-analog library, 10 μM, C2C12, duplicate): 3104 | Fluo. Z Score ([3]; SAR of library and proprietary analogs, AttoPhos assay, C2C12): 34.56 ± 1.80 | RFU Score Threshold ≥ 800 ([3]; primary screen, 10 μM, C2C12, 4 days, Ex 450/Em 580 nm, rank in brackets not taken): 4000 (1) | Fluorescence Z Score Threshold ≥ 10 ([3]; primary screen, 10 μM, C2C12, 4 days, Z score on DMSO control wells): 94.38 (1) | EC50 ([4]; C2C12): 9.3 µM | activation at 10 µM [4]: 100% | activation at 10 µM ([4]; read-out: NPA Score Threshold ≥ 5.0 (normalized percent activation)): 8.78% | EC50 ([4]; C2C12, read-out: Measured EC50): 8.6 µM | EC50 ([4]; C2C12, read-out: half maximal effective concentration in C2C12 cells): 6.27 µM | p38 MAPK activation in BRITER cells (p38 MAPK [5]): maintained the ability to activate p38 MAPK even under conditions of BMP repression | phosphorylation of MKK3/6 (MKK3/6): stimulated rapid phosphorylation of MKK3/6 | JNK p54 signaling (JNK p54): suppressed the p54 isoform
